In patent US20190194209A1, “PYRAZOLE CARBOXAMIDE COMPOUNDS AND METHODS OF USE” (Genentech, Inc., priority 2014, published 2019):

Molecular target: T1, full length human wildtype Btk (Homo sapiens, UniProt Q06187)
T1 construct: V5 (C); 6xHis (C); made in house; host or cells: Sf9 cells (baculovirus, pFastBac)
Test: Biochemical Btk Kinase Assay (Example 901)
Conditions: read-out: BTK LC3K (Ki)
Method: Formula I compounds were tested by a standard biochemical Btk, Kinase Assay (Example 901). A generalized procedure for a standard biochemical Btk, Kinase Assay that can be used to test Formula I compounds is as follows. A master mix minus Btk enzyme is prepared containing 1× Cell Signaling kinase buffer (25 mM Tris-HCl, pH 7.5, 5 mM beta-glycerophosphate, 2 mM dithiothreitol, 0.1 mM Na3VO4, 10 mM MgCl2), 0.5 μM Promega PTK Biotinylated peptide substrate 2, and 0.01% BSA. A master mix plus Btk enzyme is prepared containing 1× Cell Signaling kinase buffer, 0.5 μM (micromolar) PTK Biotinylated peptide substrate 2, 0.01% BSA, and 100 ng/well (0.06 mU/well) Btk enzyme. Btk enzyme is prepared as follows: full length human wildtype Btk (accession number NM-000061) with a C-terminal V5 and 6×His tag was subcloned into pFastBac® vector (Invitrogen/Life Technologies) for making baculovirus carrying this epitope-tagged Btk. Generation of baculovirus is done based on Invitrogen's instructions detailed in its published protocol “Bac-to-Bac Baculovirus Expression Systems” (Invitrogen/Life Technologies, Cat. Nos. 10359-016 and 10608-016). Passage 3 virus is used to infect Sf9 cells to overexpress the recombinant Btk protein. The Btk protein is then purified to homogeneity using Ni-NTA column. The purity of the final protein preparation is greater than 95% based on the sensitive Sypro-Ruby staining. A solution of 200 μM ATP is prepared in water and adjusted to pH 7.4 with 1N NaOH. A quantity of 1.25 μL (microliter) of compounds in 5% DMSO is transferred to a 96-well 2 area Costar polystyrene plate. Compounds are tested singly and with an 11-point dose-responsive curve (starting concentration is 10 μM; 1:2 dilution). A quantity of 18.75 μL of master mix minus enzyme (as a negative control) and master mix plus enzyme is transferred to appropriate wells in 96-well 2 area costar polystyrene plate. 5 μL of 200 μM ATP is added to that mixture in the 96-well 2 area Costar polystyrene plate for final ATP concentration of 40 μM. The reaction is allowed to incubate for 1 hour at room temperature. The reaction is stopped with Perkin Elmer 1× detection buffer containing 30 mM EDTA, 20 nM SA-APC, and 1 nM PT66 Ab. The plate is read using time-resolved fluorescence with a Perkin Elmer Envision using excitation filter 330 nm, emission filter 665 nm, and 2nd emission filter 615 nm. IC50 values are subsequently calculated. Alternatively, the Lanthascreen assay can be used to evaluate Btk activity through quantification of its phosphorylated peptide product. The FRET (Fluorescence Resonance Energy Transfer) that occurs between the fluorescein on the peptide product and the terbium on the detection antibody decreases with the addition of inhibitors of Btk that reduce the phosphorylation of the peptide. In a final reaction volume of 25 μL (microliters), Btk (h) (0.1 ng/25 μl reaction) is incubated with 50 mM Hepes pH 7.5, 10 mM MgCl2, 2 mM MnCl2, 2 mM DTT, 0.2 mM NaVO4, 0.01% BSA, and 0.4 uM fluorescein poly-GAT. The reaction is initiated by the addition of ATP to 25 μM (micromolar) the Km of ATP. After incubation for 60 minutes at room temperature, the reaction is stopped by the addition of a final concentration of 2 nM Tb-PY20 detection antibody in 60 mM EDTA for 30 minutes at room temperature. Detection is determined on a Perkin Elmer Envision with 340 nm excitation and emission at 495 nm and 520 nm. Exemplary Btk inhibition […] values are in Table 1.

T1 sequence (Q06187 whole entry): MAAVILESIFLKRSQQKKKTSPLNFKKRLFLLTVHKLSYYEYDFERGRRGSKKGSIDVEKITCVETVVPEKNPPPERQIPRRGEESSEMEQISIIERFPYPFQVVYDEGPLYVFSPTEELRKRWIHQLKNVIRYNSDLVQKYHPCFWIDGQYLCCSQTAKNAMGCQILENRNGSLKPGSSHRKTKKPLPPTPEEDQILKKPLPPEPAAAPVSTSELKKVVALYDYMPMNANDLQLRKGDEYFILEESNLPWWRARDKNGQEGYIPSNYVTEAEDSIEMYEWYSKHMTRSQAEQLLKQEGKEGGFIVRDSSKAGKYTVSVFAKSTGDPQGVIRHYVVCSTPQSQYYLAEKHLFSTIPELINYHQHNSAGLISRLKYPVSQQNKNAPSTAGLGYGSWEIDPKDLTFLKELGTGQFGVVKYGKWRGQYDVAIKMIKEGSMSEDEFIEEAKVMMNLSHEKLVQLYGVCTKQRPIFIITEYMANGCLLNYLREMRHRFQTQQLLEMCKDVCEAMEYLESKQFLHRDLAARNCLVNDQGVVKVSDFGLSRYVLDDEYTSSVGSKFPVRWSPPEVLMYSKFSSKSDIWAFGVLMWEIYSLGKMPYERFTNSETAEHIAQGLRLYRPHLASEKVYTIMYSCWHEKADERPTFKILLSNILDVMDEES

Row | SMILES | Ki [nM]
1 | CC(C)(C)c1cc(F)c2c(=O)n(-c3nccc(-n4cc(C(N)=O)c(-c5cnc6[nH]ccc6c5)n4)c3CO)ncc2c1 [Example 132, 1-[2-(6-tert-butyl-8-fluoro-1-oxo-phthalazin-2-yl)-3-(hydroxymethyl)-4-pyridyl]-3-(1H-pyrrolo[2,3-b]pyridin-5-yl)pyrazole-4-carboxamide] | > 500
2 | CN(C)CCNC(=O)c1cccc(-c2nn(-c3ccnc(-n4ncc5cc(C(C)(C)C)cc(F)c5c4=O)c3CO)cc2C(N)=O)c1 [Example 130, 1-[2-(6-tert-butyl-8-fluoro-1-oxo-phthalazin-2-yl)-3-(hydroxymethyl)-4-pyridyl]-3-[3-[2-(dimethylamino)ethylcarbamoyl]phenyl]pyrazole-4-carboxamide] | 43.8
3 | CCCC(=O)Nc1nn(-c2ccnc(N3CCn4c(cc5c4CC(C)(C)C5)C3=O)c2CO)cc1C(N)=O [Example 128, 3-(butanoylamino)-1-[2-(7,7-dimethyl-4-oxo-1,2,6,8-tetrahydrocyclopenta[3,4]pyrrolo[3,5-b]pyrazin-3-yl)-3-(hydroxymethyl)-4-pyridyl]pyrazole-4-carboxamide] | 33.9
4 | CC(C)(C)c1cc(F)c2c(=O)n(-c3nccc(-n4cc(C(N)=O)c(-c5ccc(O)nc5)n4)c3CO)ncc2c1 [Example 138, 1-[2-(6-tert-butyl-8-fluoro-1-oxo-phthalazin-2-yl)-3-(hydroxymethyl)-4-pyridyl]-3-(6-hydroxy-3-pyridyl)pyrazole-4-carboxamide] | 82.7
5 | CC(C)(C)c1cc(F)c2c(=O)n(-c3nccc(-n4cc(C(N)=O)c(-c5cncnc5)n4)c3CO)ncc2c1 [Example 142, 1-[2-(6-tert-butyl-8-fluoro-1-oxo-phthalazin-2-yl)-3-(hydroxymethyl)-4-pyridyl]-3-pyrimidin-5-yl-pyrazole-4-carboxamide] | 135
6 | CC(=O)Nc1ccc(-c2nn(-c3ccnc(-n4ncc5cc(C(C)(C)C)cc(F)c5c4=O)c3CO)cc2C(N)=O)cn1 [Example 137, 3-(6-acetamido-3-pyridyl)-1-[2-(6-tert-butyl-8-fluoro-1-oxo-phthalazin-2-yl)-3-(hydroxymethyl)-4-pyridyl]pyrazole-4-carboxamide] | 115
7 | CN1CCN(c2ccc(-c3nn(-c4ccnc(-n5ncc6cc(C(C)(C)C)cc(F)c6c5=O)c4CO)cc3C(N)=O)cn2)CC1 [Example 135, 1-[2-(6-tert-butyl-8-fluoro-1-oxo-phthalazin-2-yl)-3-(hydroxymethyl)-4-pyridyl]-3-[6-(4-methylpiperazin-1-yl)-3-pyridyl]pyrazole-4-carboxamide] | 15.6
8 | CC1(C)Cc2cc3n(c2C1)CCN(c1nccc(-n2cc(C(N)=O)cn2)c1CO)C3=O [Example 113, 1-[2-(7,7-dimethyl-4-oxo-1,2,6,8-tetrahydrocyclopenta[3,4]pyrrolo[3,5-b]pyrazin-3-yl)-3-(hydroxymethyl)-4-pyridyl]pyrazole-4-carboxamide] | 124
9 | CN1CCN(c2cc(-c3nn(-c4ccnc(-n5ncc6cc(C(C)(C)C)cc(F)c6c5=O)c4CO)cc3C(N)=O)ccn2)CC1 [Example 136, 1-[2-(6-tert-butyl-8-fluoro-1-oxo-phthalazin-2-yl)-3-(hydroxymethyl)-4-pyridyl]-3-[2-(4-methylpiperazin-1-yl)-4-pyridyl]pyrazole-4-carboxamide] | 50.7
10 | CC(C)(C)c1cc(F)c2c(=O)n(-c3nccc(-n4cc(C(N)=O)c(-c5ccc(CO)cc5)n4)c3CO)ncc2c1 [Example 141, 1-[2-(6-tert-butyl-8-fluoro-1-oxo-phthalazin-2-yl)-3-(hydroxymethyl)-4-pyridyl]-3-[4-(hydroxymethyl)phenyl]pyrazole-4-carboxamide] | 155
11 | CC(C)Cn1cc(-c2nn(-c3ccnc(-n4ncc5cc(C(C)(C)C)cc(F)c5c4=O)c3CO)cc2C(N)=O)cn1 [Example 134, 1-[2-(6-tert-butyl-8-fluoro-1-oxo-phthalazin-2-yl)-3-(hydroxymethyl)-4-pyridyl]-3-(1-isobutylpyrazol-4-yl)pyrazole-4-carboxamide] | 26.9
